Results on two molecules are retold here after patent US20100137344A1, “INDUCTION OF ANALGESIA IN NEUROPATHIC PAIN” (University Court of the University of Edinburgh, priority 2006, published 2010).

Each structure is given as a SMILES string. Read-outs that look alike come from different tables or passages of the source.

Format in all cases: in vivo, rat
Experiment [1] concerns dorsal horn neurons. As to the kind of experiment: Extracellular recordings of single spinal dorsal horn neurons in CCI animals (brush-evoked firing). The settings on record: icilin 200 μM topical. As for the experimental part:
Peripheral: Recordings of saphenous (sensory) nerve were made in naïve animals (n=7) to assess the effects of topical icilin on primary afferents. In addition, recordings were carried out on animals which had undergone TRPM8 antisense or mis-sense treatment beginning 4-5 days previously. Rats were anaesthetised (with 0.6 ml 25% urethane/100 g, i.p.) and the saphenous nerve was exposed and dissected from its associated vein and artery. Further dissection under liquid paraffin enabled identification of afferent preparations comprising a small number of fibres. The conduction velocity of single identified afferent fibres was determined using bipolar electrodes and the peripheral stimulus technique^[43]. Following isolation of preparations, icilin (200 μM in water with 0.2% DMF), (−)-menthol (4 mM in 25% ethanol) resiniferatoxin (1 mM in ethanol) or vehicle alone were applied to the hindlimb receptive fields and neuronal responses recorded using the Chart programme (version 3.6). Central: Recordings of spinal dorsal horn neurons were made in CCI animals, as described previously^[39]. Following halothane induction, the jugular vein and trachea were canulated and intravenous anaesthetic delivered: α-chloralose ([…], Fisher) and urethane ([…], Sigma), with small supplementary doses of α-chloralose as required throughout the experiment. Core body temperature was maintained at 37-38° C. by means of a thermostatically controlled heated blanket. The animal was placed in a stereotaxic frame, and the thoracolumbar spinal column was supported using three pairs of swan-necked clamps. A laminectomy was performed at L2-L5, and agar (2% in saline at 37° C.) was delivered over exposed cord to increase mechanical stability. Above the recording region the agar and spinal cord dura were removed and liquid paraffin poured into the pool. Extracellular recordings were made from single multireceptive neurons in laminae I-IV through the centre barrel of a seven-barrelled glass microelectrode filled with 4M NaCl (tip-diameter […], DC resistance 5-8 MΩ). The receptive fields of hair-follicle innervated neurons on the distal hindlimb were identified by an innocuous brush stimulus^[39]. Icilin (200 μM in water with 0.2% DMF) was applied peripherally to the receptive field of individual recorded neurons, and the effect on neuronal response to a rotating brush was recorded and analysed using Spike2 programme (Version 3.2, CED). The Group III mGluR antagonist UBP 1112 (20 mM in water), pH 8.5, and control 1M NaCl, pH 8.5 were ionophoresed from the side barrels of the electrode using currents of between 20 nA and 80 nA (Neurophore BH2 ionophoresis system, Medical Systems, Great Neck, N.Y.) to measure effects on neuronal response to icilin.

For experiment [2], the system named is rats with chronic constriction injury (CCI) to sciatic nerve. The experiment can be described thus: Intrathecal application in CCI rats, behavioural reflex testing (PWL, PWT). Particulars: for EC50: Rattus norvegicus, central; for duration of significant reversal of sensitised responses: (−)-menthol 200 nmol. As for the experimental part: (§1) Pain models were generated under halothane anaesthesia (Zeneca, Cheshire, UK). For the chronic constriction injury (CCI) model of neuropathic pain, four ligatures were tied loosely to constrict the sciatic nerve at mid-thigh level (as described previously^[39]). An inflammatory pain model was generated by injecting 100 μl of Complete Freund's Adjuvant (CFA, Sigma-Aldrich Ltd) into the ventral surface of the right hindpaw^[39]. A model of peripheral demyelination-induced pain was produced by focal application of lysolecithin to the sciatic nerve^[40]. Peak behavioural sensitisation was observed post-surgically between days 10-16 for CCI, 1-3 for CFA, and 7-14 for lysolecithin, when pharmacological and electrophysiological experiments and tissue removal were conducted.
(§2) Thermal sensitivity was assessed by measuring paw withdrawal latency (PWL, s) in response to a noxious thermal stimulus (Hargreaves' thermal stimulator, Linton Instrumentation, Diss, UK) directed to the hindpaw mid-plantar glabrous surface. Mechanical sensitivity was recorded as the paw withdrawal threshold (PWT, mN/mm^2) to calibrated von Frey filaments (Stoelting, Ill., US), as previously described^[39]. Sensitivity to noxious cold was assessed by placing animals in a waterbath with an aluminium floor containing 1 cm deep 4° C. water and counting the time the paw was held suspended over a 20 s period.
(§3) The following drugs were applied intrathecally in a 50 μl volume of saline-based vehicle at 37° C.: icilin (2.5-200 μM in saline with 0.2% dimethylformamide, DMF), LY 341495 (100 μM in saline), UBP 1112 (200 μM in saline), 2R,4R-APDC ((2R, 4R)-4-aminopyrrolidine-2,4-dicarboxylate), 300 μM in saline), ACPT-III ((1R,3R,4S)-1-aminocyclopentane-1,3,4-tricarboxylic acid), 3 mM in saline), AP-4, ((L-(1)-2-amino-4-phosphonobutyric acid), 3 mM in saline), naloxone (0.5 mM in saline), NMDA (75 μM in saline) and ACPC (1-aminocyclopropanecarboxylic acid, 15 μM in saline) (Tocris Cookson, Bristol, UK), (−)-menthol (1R,2S,5R-(−)-menthol, 4 mM in saline), cinnamaldehyde (1.5 mM in saline) and Ruthenium Red (5 μM in saline) (Sigma-Aldrich Co. Ltd, UK) and allicin (0.5 mM in saline with 0.5% DMF) and diallyl disulphide (DADS, 1 mM in saline with 0.5% DMF) (LKT Laboratories Inc., St Paul, Minn., USA). Drugs were injected into the L5/6 intrathecal space under brief halothane anaesthesia, using a 25-gauge needle microsyringe (BD Biosciences, Oxford, UK), as described previously^[39] in animals that were at peak levels of behavioural sensitisation. Behavioural reflex testing commenced 15 min following injection to allow recovery from anaesthesia^[40,41,42] and continued every 5 min thereafter until readings returned to baseline levels (n=6 in each case). We, and others^[40,41,42] find complete recovery from anaesthetic by 15 minutes. All appropriate controls were carried out to eliminate the possibility of effects due to vehicle or to injection procedure.
The TRPM8 channel activators, icilin and (−)-menthol were tested in CCI and naïve animals. The effects of icilin were additionally assessed in animals with CFA-induced inflammation or with lysolecithin-induced demyelination. Icilin was also co-administered with the μ-opioid receptor antagonist naloxone, the Group II metabotropic glutamate receptor (mGluR) antagonist, LY 341495, or the Group III mGluR antagonist, UBP 1112. The effects of these antagonists alone as well as effects of the Group II mGluR agonist, 2R,4R-APDC and the Group III mGluR agonists, ACPT-III and AP-4, were assessed in CCI animals. The TRPA1 channel activator, cinnamaldehyde, alone and with icilin, was tested in CCI animals and in naïve animals. Further TRPA1 channel activators, allicin and diallyl disulphide were assessed in naïve animals. Both icilin and cinnamaldehyde effects in CCI animals were also investigated in the additional presence of Ruthenium Red.

For experiment [3], the system named is rats with Complete Freund's Adjuvant (CFA)-induced inflammation. As to the kind of experiment: Intrathecal icilin in CFA inflammatory pain model (PWL, PWT). The settings on record: icilin 10 nmol, i.t. As for the experimental part:
as §1, §2
as §3, with “Drugs were injected into the L5/6 intrathecal space under brief halothane anaesthesia, using a 25-gauge needle microsyringe (BD Biosciences, Oxford, UK), as described previously^[39] in animals that were at peak levels of behavioural sensitisation.” left out, “We, and others^[40,41,42] find complete recovery from anaesthetic by 15 minutes. All appropriate controls were carried out to eliminate the possibility of effects due to vehicle or to injection procedure.” left out
The TRPM8 channel activators, icilin and (−)-menthol were tested in CCI and naïve animals. The effects of icilin were additionally assessed in animals with CFA-induced inflammation or with lysolecithin-induced demyelination. […]

The mark [4] stands for this setting: intrathecal, non-linear curve-fitting.
[5] abbreviates: (−)-menthol 200 nmol intrathecal alone, 20-30 minutes post-injection.

What is called EC50 is the concentration needed to bring the measured effect to its halfway point. For `O=C1NC(c2cccc([N+](=O)[O-])c2)=CCN1c1ccccc1O` [icilin, 1-(2′-hydroxyphenyl)-4-(3″-nitrophenyl)-1,2,3,6-tetrahydropyrimidin-2-one], in experiment [1] (contralateral, n=6), the “brush-induced responses of contralateral neurons” value is on record as 111.9±8.9 % of control. The brush-induced responses in experiment [1] (ipsilateral to CCI, 8 neurons out of 12 affected) was 37.4±5.5%. In addition, the “Ipsilateral PWL” value in experiment [2] (CCI, NMDA/ACPC in the additional presence of icilin 10 nmol) is 14.9 ± 0.6 s. For the same molecule, in experiment [2] (CCI, NMDA/ACPC with co-injection of icilin 10 nmol), the “Ipsilateral PWT” value came out at 3482.7±174.3 mN/mm^2. In experiment [2] (CCI, icilin 10 nmol, i.t.), the “Mean % reversal of mechanical sensitisation (after 15-30 mins)” value is 76.8 ± 5.3%, the “Mean % reversal of thermal sensitisation (after 15-30 mins)” value is listed as 84.7 ± 6.0%, the “PWL (s) difference from control (+ icilin)” value was 0.9 ± 1.2 s and the “PWT (mN/mm^2) difference from control (+ icilin)” value is 775.4 ± 467.7 mN/mm^2. Moreover, the EC50 in experiment [2] (intrathecal, non-linear curve-fitting, read-out: EC50 (dose for 50% of maximal effect), PWL) is 0.17 ± 0.02 nM. In addition, in experiment [2] (intrathecal, non-linear curve-fitting, read-out: EC50 (dose for 50% of maximal effect), PWT), the EC50 worked out at 0.31 ± 0.02 nM. In addition, the “duration of significant reversal of sensitised responses” value in experiment [2] (intrathecal, icilin 10 nmol) was “up to 55 min”. Further, in experiment [2] (setting [4]), the “maximal effect, reversal of sensitisation, PWL” value worked out at 91.6±9.9% and the “maximal effect, reversal of sensitisation, PWT” value stood at 82.6±6.8%. The “dose by which analgesic effects were statistically significant” value in experiment [2] (intrathecal, thermal and mechanical tests, nerve injury side) was 0.125 nmol. In addition, in experiment [3], the “Mean % reversal of mechanical sensitisation (after 15-30 mins)” value was determined as 42.6 ± 2.8%, the “Mean % reversal of thermal sensitisation (after 15-30 mins)” value is reported as 66.0 ± 7.5%, the “PWL (s) difference from control (+ icilin)” value turned out to be 1.6 ± 1.6 s and the “PWT (mN/mm^2) difference from control (+ icilin)” value was found to be 1707.6 ± 149.9 mN/mm^2.

`CC(C)[C@@H]1CC[C@@H](C)C[C@H]1O` [(−)-menthol, 1R,2S,5R-(−)-menthol]: in experiment [2] (setting [5]), the “mean percentage reversal of sensitisation, PWL” value was 86.1±8.1% and the “mean percentage reversal of sensitisation, PWT” value was found to be 80.6±4.2%. Moreover, the “duration of significant reversal of sensitised responses” value in experiment [2] (intrathecal, icilin 10 nmol) is 35 to 40 min.
